Square brackets hold non-standard residues; d marks the D form. Ends that are not written are not given here.
How the values were obtained:
[1] = tested on: Candida albicans (Candid); test: Minimal inhibitory concentration, Candida; type: cell-based
Experimental: (§1) The minimal inhibitory concentrations (MICs) of a variety of protegrins were determined against the following organisms: methicillin resistant Staphylococcus aureus (MRSA), Pseudomonas aeruginosa (Psa), vancomycin resistant Enterococcus fecium (VREF), Candida albicans (Candid) and Escherichia coli (E. Co), and are shown in Table 9.

Escherichia coli (E. Co) = test: Minimal inhibitory concentration, E. coli; type: cell-based
Experimental: as §1

[2] = tested on: Pseudomonas aeruginosa (Psa); test: Minimal inhibitory concentration, Psa; type: cell-based
Experimental: as §1

[3] = tested on: methicillin resistant Staphylococcus aureus (MRSA); test: Minimal inhibitory concentration, MRSA; type: cell-based
Experimental: as §1

C. albicans, strain 820 = type: cell-based, Candida albicans; settings: 90% fetal calf serum
Experimental: The units of activity in the radial diffusion assay were measured as described; 10 units correspond to a 1 mm diameter clear zone around the sample well.
(§2) The radial diffusion assay in agarose gels described in Example 1 was also used to test the activity of the purified protegrins.
Similarly, using C. albicans as a target organism, underlayers were prepared with 10 mM sodium phosphate with and without 10% normal human serum.

[4] = tested on: lipid polysaccharide (LPS) of E. coli strain 0.55B5; test: Limulus amebocyte lysate (LAL) test for endotoxin binding; type: biochemical; settings: LPS 0.05 endotoxin unit/ml
E. coli ML-35P = test: Radial diffusion assay in agarose gels, E. coli; type: cell-based
Experimental: Aliquots (66 μl) of each fraction were dried by vacuum centrifugation and resuspended in 6.6 μl of 0.01% acetic acid. […] The units of activity in the radial diffusion assay were measured as described; 10 units correspond to a 1 mm diameter clear zone around the sample well.
as §2
The antimicrobial activity of the linearalized forms was also compared with that of the native protegrins.
This form of protegrin was tested against E. coli, L. monocytogenes, C. albicans and other microbes in the absence and presence of protease and otherwise as described for the radiodiffusion assay in agarose gels set forth in Example 1.
As described in Example 1, 0.3 mg/ml tripticase soy broth powder and 1% agarose were used as well in the underlay agar. In some cases 100 mM NaCl or RPMI plus 2.5% normal human serum (NHS) was added to the agar.

[5] = tested on: Trichomonas vaginallis strain C1 (ATCC 30001); strains MR and TV; test: Trichomonas vaginallis exposure assay; settings: strains MR and TV; 100 and 50 μg/ml

Substance | minimal inhibitory concentration (MIC) Candid [1] | minimal inhibitory concentration (MIC) E. Co (Escherichia coli (E. Co)) | minimal inhibitory concentration (MIC) Psa [2] | minimal inhibitory concentration (MIC) MRSA [3] | further results
R-G-G-R-L-C-Y-A-R-R-R-F-A-V-C-V-G-R-OH (RGGRLCYARRRFAVCVGR-OH; cysteine pairing not given here) [IB-288] | 1.6 | 0.4 | 0.05 | – | –
R-G-G-G-L-C-Y-C-R-R-G-F-C-V-C-F-G-R (RGGGLCYCRRGFCVCFGR-NH2; cysteine pairing not given here) [IB-223] | 1.62 | – | 0.14 | 1.93 | –
R-G-G-R-V-C-Y-C-R-G-R-F-C-V-C-V-OH (RGGRVCYCRGRFCVCV-OH; cysteine pairing not given here) [IB-401] | – | – | 1 | 64 | –
HNP-2: native human defensin used as control (CYCRIPACIAGERRYGTCIYQGRLWAFCC; ends and bridges not checked; cysteine pairing not given here; UniProt P59665 66-94, looked up) [reference compound] | – | – | – | – | activity against Candida albicans in fetal calf serum (FIG. 5c) (C. albicans, strain 820): lose their ability to inactivate C. albicans; gel formation in LAL test ([4]; 2.5 μg peptide in 0.2 ml): trace; gel formation in LAL test ([4]; 5 μg peptide in 0.2 ml): trace; gel formation in LAL test ([4]; 10 μg peptide in 0.2 ml): trace
R-G-G-G-L-C-Y-A-R-G-F-I-A-V-C-F-G-R (RGGGLCYARGFIAVCFGR-NH2; not fully specified; printed as R-G-G-G-L-C-Y-A-R-G-F-I-A-V-C-F-G-R; cysteine pairing not given here) [IB-216] | 65.8 | 3.27 | 14 | 19 | –
R-G-G-G-L-C-Y-A-R-K-G-F-A-V-C-V-G-R (RGGGLCYARKGFAVCVGR-NH2; cysteine pairing not given here) [IB-227] | – | 2.65 | 0.01 | >128 | –
R-G-G-R-L-C-Y-A-R-R-R-F-A-V-C-V-G-R (RGGRLCYARRRFAVCVGR) [IB-289] | 1.6 | 0.4 | 0.05 | – | –
R-G-G-R-V-C-Y-C-R-G-R-F-C-V-C-V (RGGRVCYCRGRFCVCV) [IB-400] | – | – | 2 | 8 | –
R-G-G-G-L-C-Y-A-R-G-W-I-A-F-C-V-G-R (RGGGLCYARGWIAFCVGR-NH2; cysteine pairing not given here) [IB-214] | 32.6 | 0.81 | 0.59 | 2.1 | –
R-G-G-R-V-C-Y-C-R-G-R-F-C-V-C-V-G-R (RGGRVCYCRGRFCVCVGR) [IB-398] | – | – | 1 | 8 | –
R-G-G-G-L-C-Y-C-R-P-R-F-C-V-C-V-G-R-OH (RGGGLCYCRPRFCVCVGR-OH; cysteine pairing not given here) [IB-324] | 17.7 | 3.51 | – | – | –
R-G-G-G-L-C-Y-C-R-R-R-F-C-V-C-V-G-R-OH (RGGGLCYCRRRFCVCVGR-OH; cysteine pairing not given here) [IB-249] | 3.29 | 0.4 | – | – | –
R-G-G-R-L-C-Y-C-R-R-R-F-C-V-C-V-G-R (all †) ([dR]GG[dR][dL][dC][dY][dC][dR][dR][dR][dF][dC][dV][dC][dV]G[dR]-NH2; cysteine pairing not given here) [enantioPG-1] | – | – | – | – | inhibition of growth of E. coli (FIG. 12a) (E. coli ML-35P; absence of protease): equally effective; antibacterial effect in presence of protease (FIG. 12b) (E. coli ML-35P; trypsin or chymotrypsin, organism of FIG. 12b not stated): neither trypsin nor chymotrypsin inhibits the antibacterial effect; susceptibility of metronidazole-resistant clinical isolates [5]: susceptible
R-G-G-R-L-C-Y-C-R-R-R-F-C-V-C-V-G-R-OH (RGGRLCYCRRRFCVCVGR-OH; cysteine pairing not given here) [IB-247] | 1.2 | 0.6 | 0.11 | 1.5 | –
R-G-G-G-L-C-Y-C-F-P-K-F-C-V-C-V-G-R (RGGGLCYCFPKFCVCVGR-NH2; cysteine pairing not given here) [IB-218] | 15.96 | – | 1.2 | 3.48 | –
R-G-G-G-L-C-Y-T-R-P-R-F-T-V-C-V-G-R (RGGGLCYTRPRFTVCVGR-NH2; cysteine pairing not given here) [IB-226] | – | 1.53 | 0.07 | 8.7 | –
HNP-4: native human defensin (VCSCRLVFCRRTELRVGNCLIGGVSFTYCCTRV; ends and bridges not checked; cysteine pairing not given here; UniProt P12838 64-96, looked up) [reference compound] | – | – | – | – | gel formation in LAL test ([4]; 2.5 μg peptide in 0.2 ml): trace; gel formation in LAL test ([4]; 5 μg peptide in 0.2 ml): trace; gel formation in LAL test ([4]; 10 μg peptide in 0.2 ml): no gel
R-G-G-G-L-C-Y-C-R-R-P-F-C-V-C-V-G-R (RGGGLCYCRRPFCVCVGR-NH2; cysteine pairing not given here) [IB-224] | 7.69 | 0.15 | 0.06 | 3.1 | –
HNP-3: native human defensin [reference compound] | – | – | – | – | gel formation in LAL test ([4]; 10 μg peptide in 0.2 ml): no gel

— patent US6653442B1, “Protegrins” (priority 1993, dated 2003)
